Reference: ChEMBL document CHEMBL4184210, “Optimization of novel monobactams with activity against carbapenem-resistant Enterobacteriaceae - Identification of LYS228” (Bioorg Med Chem Lett, 2018)

How the values were obtained:
Escherichia coli [1] = test: microbe, parasite or virus in culture
Description: Antimicrobial activity against Escherichia coli expressing beta-lactamase Oxa-48 by CLSI broth microdilution method

Escherichia coli [2] = test: microbe, parasite or virus in culture; remark: listed apart in the source
Description: Antimicrobial activity against Escherichia coli expressing beta-lactamase KPC-3 by CLSI broth microdilution method

Escherichia coli [3] = test: Antimicrobial activity against Escherichia coli expressing beta-lactamase KPC-2 by CLSI broth microdilution method; assay type: functional
Escherichia coli [4] = test: microbe, parasite or virus in culture; remark: listed apart in the source
Description: Antimicrobial activity against Escherichia coli expressing beta-lactamase Oxa-51 by CLSI broth microdilution method

Escherichia coli [5] = test: microbe, parasite or virus in culture; remark: listed apart in the source
Description: Antimicrobial activity against Escherichia coli expressing beta-lactamase CTXM-3 by CLSI broth microdilution method

Escherichia coli [6] = test: microbe, parasite or virus in culture; remark: listed apart in the source
Description: Antimicrobial activity against Escherichia coli expressing beta-lactamase Oxa-40 by CLSI broth microdilution method

Escherichia coli [7] = test: microbe, parasite or virus in culture; remark: listed apart in the source
Description: Antimicrobial activity against Escherichia coli expressing beta-lactamase KPC-4 by CLSI broth microdilution method

Escherichia coli [8] = test: microbe, parasite or virus in culture; remark: listed apart in the source
Description: Antimicrobial activity against Escherichia coli expressing beta-lactamase Oxa-18 by CLSI broth microdilution method

Escherichia coli [9] = test: microbe, parasite or virus in culture; remark: listed apart in the source
Description: Antimicrobial activity against Escherichia coli expressing beta-lactamase Oxa-181 by CLSI broth microdilution method

Escherichia coli [10] = test: microbe, parasite or virus in culture; remark: listed apart in the source
Description: Antimicrobial activity against Escherichia coli expressing beta-lactamase TEM-47 by CLSI broth microdilution method

[11] = Stability assessed as assessed as Escherichia coli beta-lactamase KPC-2-mediated compound hydrolysis by measuring molar enthalpy of hydrolysis at 1 mM by isothermal titration calorimetry; assay type: ADME; details: 1000 µM
Escherichia coli [12] = test: microbe, parasite or virus in culture; remark: listed apart in the source
Description: Antimicrobial activity against Escherichia coli expressing beta-lactamase IMI-1 by CLSI broth microdilution method

Escherichia coli [13] = test: Antimicrobial activity against Escherichia coli expressing beta-lactamase NDM-5 by CLSI broth microdilution method; assay type: functional
Escherichia coli [14] = test: microbe, parasite or virus in culture; remark: listed apart in the source
Description: Antimicrobial activity against Escherichia coli expressing beta-lactamase PER-1 by CLSI broth microdilution method

Escherichia coli [15] = test: microbe, parasite or virus in culture; remark: listed apart in the source
Description: Antimicrobial activity against Escherichia coli expressing beta-lactamase TEM-24 by CLSI broth microdilution method

Escherichia coli [16] = test: microbe, parasite or virus in culture; remark: listed apart in the source
Description: Antimicrobial activity against Escherichia coli expressing beta-lactamase IMP-1 by CLSI broth microdilution method

Escherichia coli [17] = test: microbe, parasite or virus in culture; remark: listed apart in the source
Description: Antimicrobial activity against Escherichia coli expressing beta-lactamase AmpC by CLSI broth microdilution method

Escherichia coli [18] = test: microbe, parasite or virus in culture; remark: listed apart in the source
Description: Antimicrobial activity against Escherichia coli expressing beta-lactamase P99 by CLSI broth microdilution method

Escherichia coli [19] = test: microbe, parasite or virus in culture; remark: listed apart in the source
Description: Antimicrobial activity against Escherichia coli expressing beta-lactamase Oxa-160 by CLSI broth microdilution method

Escherichia coli [20] = test: microbe, parasite or virus in culture; remark: listed apart in the source
Description: Antimicrobial activity against Escherichia coli expressing beta-lactamase GES-1 by CLSI broth microdilution method

Escherichia coli [21] = test: microbe, parasite or virus in culture; remark: listed apart in the source
Description: Antimicrobial activity against Escherichia coli expressing beta-lactamase GIM-1 by CLSI broth microdilution method

Escherichia coli [22] = test: microbe, parasite or virus in culture; remark: listed apart in the source
Description: Antimicrobial activity against Escherichia coli expressing beta-lactamase PER-4 by CLSI broth microdilution method

Escherichia coli [23] = test: microbe, parasite or virus in culture; remark: listed apart in the source
Description: Antimicrobial activity against Escherichia coli expressing beta-lactamase TEM-121 by CLSI broth microdilution method

Escherichia coli [24] = test: microbe, parasite or virus in culture; remark: listed apart in the source
Description: Antimicrobial activity against Escherichia coli expressing beta-lactamase CTXM-15 by CLSI broth microdilution method

Escherichia coli [25] = test: microbe, parasite or virus in culture; remark: listed apart in the source
Description: Antimicrobial activity against Escherichia coli expressing beta-lactamase VEB-7 by CLSI broth microdilution method

Escherichia coli [26] = test: microbe, parasite or virus in culture; remark: listed apart in the source
Description: Antimicrobial activity against Escherichia coli expressing beta-lactamase Oxa-225 by CLSI broth microdilution method

Escherichia coli [27] = test: microbe, parasite or virus in culture; remark: listed apart in the source
Description: Antimicrobial activity against Escherichia coli expressing beta-lactamase VEB-4 by CLSI broth microdilution method

Escherichia coli [28] = test: microbe, parasite or virus in culture; remark: listed apart in the source
Description: Antimicrobial activity against Escherichia coli expressing beta-lactamase SPM-1 by CLSI broth microdilution method

Escherichia coli [29] = test: microbe, parasite or virus in culture; remark: listed apart in the source
Description: Antimicrobial activity against Escherichia coli expressing beta-lactamase TEM-16 by CLSI broth microdilution method

Escherichia coli [30] = test: microbe, parasite or virus in culture; remark: listed apart in the source
Description: Antimicrobial activity against Escherichia coli expressing beta-lactamase SME-1 by CLSI broth microdilution method

Escherichia coli [31] = test: microbe, parasite or virus in culture; remark: listed apart in the source
Description: Antimicrobial activity against Escherichia coli expressing beta-lactamase KPC-8 by CLSI broth microdilution method

Escherichia coli [32] = test: microbe, parasite or virus in culture; remark: listed apart in the source
Description: Antimicrobial activity against Escherichia coli expressing beta-lactamase MIR-1 by CLSI broth microdilution method

Beta-lactamase SHV-12 = molecular target: T1, Beta-lactamase SHV-12 (Escherichia coli, UniProt Q7X574); test: Stability assessed as assessed as Escherichia coli beta-lactamase SHV-12-mediated compound hydrolysis by measuring molar enthalpy of hydrolysis at 1 mM by isothermal titration calorimetry; assay type: ADME; details: 1000 µM
T1 sequence (Q7X574 whole entry): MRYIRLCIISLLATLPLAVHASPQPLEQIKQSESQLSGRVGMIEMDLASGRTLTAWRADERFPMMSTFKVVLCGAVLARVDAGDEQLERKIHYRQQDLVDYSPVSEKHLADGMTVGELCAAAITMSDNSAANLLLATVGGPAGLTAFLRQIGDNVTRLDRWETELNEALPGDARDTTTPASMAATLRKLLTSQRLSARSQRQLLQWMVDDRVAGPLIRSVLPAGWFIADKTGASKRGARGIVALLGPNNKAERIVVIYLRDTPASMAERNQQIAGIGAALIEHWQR

Escherichia coli [33] = test: microbe, parasite or virus in culture; remark: listed apart in the source
Description: Antimicrobial activity against Escherichia coli expressing beta-lactamase SHV-12 by CLSI broth microdilution method

[34] = Chemical stability in pH 7.4 potassium phosphate buffer assessed as half life for compound hydrolysis at 37 degC by UPLC and mass spectrometry; assay type: physicochemical
Escherichia coli [35] = test: microbe, parasite or virus in culture; remark: listed apart in the source
Description: Antimicrobial activity against Escherichia coli expressing beta-lactamase Oxa-10 by CLSI broth microdilution method

Escherichia coli [36] = test: microbe, parasite or virus in culture; remark: listed apart in the source
Description: Antimicrobial activity against Escherichia coli expressing beta-lactamase CMY-2 by CLSI broth microdilution method

Escherichia coli [37] = test: microbe, parasite or virus in culture; remark: listed apart in the source
Description: Antimicrobial activity against Escherichia coli expressing beta-lactamase TEM-10 by CLSI broth microdilution method

Escherichia coli [38] = test: microbe, parasite or virus in culture; remark: listed apart in the source
Description: Antimicrobial activity against Escherichia coli expressing beta-lactamase PER-2 by CLSI broth microdilution method

Escherichia coli [39] = test: microbe, parasite or virus in culture; remark: listed apart in the source
Description: Antimicrobial activity against Escherichia coli expressing beta-lactamase Oxa-146 by CLSI broth microdilution method

[40] = Stability assessed as assessed as Escherichia coli beta-lactamase CTX-M-15-mediated compound hydrolysis by measuring molar enthalpy of hydrolysis at 1 mM by isothermal titration calorimetry; assay type: ADME; details: 1000 µM
Escherichia coli [41] = test: microbe, parasite or virus in culture; remark: listed apart in the source
Description: Antimicrobial activity against Escherichia coli expressing beta-lactamase NMC-A by CLSI broth microdilution method

Escherichia coli [42] = test: Antimicrobial activity against Escherichia coli expressing beta-lactamase VEB-1 by CLSI broth microdilution method; assay type: functional
Escherichia coli [43] = test: microbe, parasite or virus in culture; remark: listed apart in the source
Description: Antimicrobial activity against Escherichia coli expressing beta-lactamase DHA by CLSI broth microdilution method

Escherichia coli [44] = test: microbe, parasite or virus in culture; remark: listed apart in the source
Description: Antimicrobial activity against Escherichia coli expressing beta-lactamase VIM-1 by CLSI broth microdilution method

Escherichia coli [45] = test: microbe, parasite or virus in culture; remark: listed apart in the source
Description: Antimicrobial activity against wild type Escherichia coli by CLSI broth microdilution method

Escherichia coli [46] = test: Antimicrobial activity against Escherichia coli expressing beta-lactamase NDM-1 by CLSI broth microdilution method; assay type: functional
Escherichia coli [47] = test: microbe, parasite or virus in culture; remark: listed apart in the source
Description: Antimicrobial activity against Escherichia coli expressing beta-lactamase Oxa-23 by CLSI broth microdilution method

NC(=O)OC[C@@H]1[C@H](NC(=O)/C(=N\OCC(=O)O)c2csc(N)n2)C(=O)N1S(=O)(=O)O [CARUMONAM]
Unstable: Stability (Beta-lactamase SHV-12)
1 µg/mL: MIC (Escherichia coli [3]) | MIC (Escherichia coli [19]) | MIC (Escherichia coli [26])
0.06 to 0.125 µg/mL: MIC (Escherichia coli [45])
0.125 µg/mL: MIC (Escherichia coli [1]) | MIC (Escherichia coli [2]) | MIC (Escherichia coli [4]) | MIC (Escherichia coli [5]) | MIC (Escherichia coli [6]) | MIC (Escherichia coli [9]) | MIC (Escherichia coli [12]) | MIC (Escherichia coli [13]) | MIC (Escherichia coli [16]) | MIC (Escherichia coli [20]) | MIC (Escherichia coli [21]) | MIC (Escherichia coli [24]) | MIC (Escherichia coli [28]) | MIC (Escherichia coli [30]) | MIC (Escherichia coli [41]) | MIC (Escherichia coli [44]) | MIC (Escherichia coli [46]) | MIC (Escherichia coli [47])
8 µg/mL: MIC (Escherichia coli [32])
4 µg/mL: MIC (Escherichia coli [15]) | MIC (Escherichia coli [17]) | MIC (Escherichia coli [18]) | MIC (Escherichia coli [31]) | MIC (Escherichia coli [36]) | MIC (Escherichia coli [37])
> 64 µg/mL: MIC (Escherichia coli [14]) | MIC (Escherichia coli [25]) | MIC (Escherichia coli [33]) | MIC (Escherichia coli [38]) | MIC (Escherichia coli [42])
16 µg/mL: MIC (Escherichia coli [8]) | MIC (Escherichia coli [43])
Stable: Stability [11] | Stability [40]
32 µg/mL: MIC (Escherichia coli [7])
> 83.3 days: half-life [34]
64 µg/mL: MIC (Escherichia coli [22]) | MIC (Escherichia coli [27])
2 µg/mL: MIC (Escherichia coli [39])
0.5 µg/mL: MIC (Escherichia coli [10]) | MIC (Escherichia coli [23]) | MIC (Escherichia coli [29]) | MIC (Escherichia coli [35])
